Source: patent publication US20240293380A1, “PROTEASE INHIBITORS AND METHODS OF USE” (priority 2021, published 2024)

Target: SARS-CoV-2 3CLpro (Severe acute respiratory syndrome coronavirus 2 (2019-nCoV) (SARS-CoV-2), UniProt P0DTD1)
Test: not given
Type: biochemical
Conditions: not given

Q: Which IC50 does the source give for `O=C(Cc1cncc2ccccc12)N(Cc1cc(F)cc(Cl)c1)c1ccc(-c2c[nH]cn2)cc1` [Compound 12, N-[(3-chloro-5-fluoro-phenyl)methyl]-N-[4-(1H-imidazol-4-yl)phenyl]-2-(4-isoquinolyl)acetamide] here?
A: 15 nM

Q: Which IC50 does the source give for `O=C(Cc1cncc(C2CC2)c1)N(Cc1cc(F)cc(Cl)c1)c1ccc(C2CNC2)cc1` [Compound 79] here?
A: 112 nM

Q: With `O=C(Cc1cncc2ccccc12)N(Cc1cccc(F)c1F)c1ccc(-c2c[nH]cn2)cc1` [Compound 25] as the molecule, how does the IC50 read?
A: 184 nM

Q: For `Cc1cncc(CC(=O)N(Cc2cc(F)cc(F)c2)c2ccc(-c3c[nH]cn3)cc2)c1` [Compound 66], which IC50 is on record?
A: 103 nM

Q: How did the IC50 turn out when `O=C(Cc1cncc2ccccc12)N(Cc1cncc(F)c1)c1ccc(C2=CCNC2)cc1` [Compound 68] was run?
A: 608 nM

Q: With `O=C(Cc1nnc2ccc(F)cn12)N(Cc1cc(F)cc(Cl)c1)c1ccc(-c2c[nH]cn2)cc1` [Compound 10, N-[(3-chloro-5-fluoro-phenyl)methyl]-2-(6-fluoro-[1,2,4]triazolo[4,3-a]pyridin-3-yl)-N-[4-(1H-imidazol-4-yl)phenyl]acetamide] as the molecule, how does the IC50 read?
A: 77 nM

Q: With `O=C1CNCCN1c1ccc(N(Cc2cc(F)cc(F)c2)C(=O)Cc2cncc3ccccc23)cc1` [Compound 35] as the molecule, how does the IC50 read?
A: 481 nM

Q: `COc1ccc(Cl)cc1CN(C(=O)Cc1cncc2ccccc12)c1ccc(-c2c[nH]cn2)cc1` [Compound 18] was tested. Which IC50 did it give?
A: 191 nM

Q: Which IC50 does the source give for `O=C(Cc1cncc2ccccc12)N(Cc1cc(F)cc(F)c1)c1ccc(C2CNC2)cc1` [Compound 62] here?
A: 69 nM

Q: With `Cc1ccc2nnc(CC(=O)N(Cc3cc(F)cc(F)c3)c3ccc(-c4c[nH]cn4)cc3)n2n1` [Compound 41] as the molecule, how does the IC50 read?
A: 604 nM

Q: Which IC50 does the source give for `O=C(Cc1cnccn1)N(Cc1cc(F)cc(Cl)c1)c1ccc(-c2c[nH]cn2)cc1` [Compound 55] here?
A: 2040 nM

Q: Which IC50 does the source give for `O=C(Cc1nncc2ccccc12)N(Cc1cc(F)cc(Cl)c1)c1ccc(-c2c[nH]cn2)cc1` [Compound 73] here?
A: 61 nM

Test system: SARS-CoV-2
Test: microbe, parasite or virus in culture
Type: cell-based, SARS-Related Coronavirus 2, Isolate USA-WA1/2020
Conditions: Severe acute respiratory syndrome coronavirus 2, Vero C1008

Q: With `O=C(Cc1cncc2ccccc12)N(Cc1cc(F)cc(Cl)c1)c1ccc(-c2c[nH]cn2)cc1` [Compound 12, N-[(3-chloro-5-fluoro-phenyl)methyl]-N-[4-(1H-imidazol-4-yl)phenyl]-2-(4-isoquinolyl)acetamide] as the molecule, how does the EC50 read?
A: 1140 nM
